Measured values: US10029022B2, “Nuclear medicine diagnostic imaging agent” (Kyoto University, priority 2015, dated 2018)

Assays:
EGFR (L858R) = biological target: T1, EGFR (L858R) (Homo sapiens, UniProt P00533, L858R); test: EGFR Tyrosine Kinase Inhibiting Activity Measurement 1 (ADP-Glo), L858R; format: biochemical; details: 1 h incubation with ATP/Poly(Glu, Tyr); >10: <50% enzyme inhibition at 10 μM
T1 construct: purchased Promega V5322
Description: (§1) The measurement was carried out according to the Promega protocol applications guide. That is, a buffer solution (40 mM Tris-HCl, pH 7.5, 20 mM MgCl2, 50 μM DTT and 0.1 mg/mL BSA) was used as a dilute solution. The concentration of each compound started at 100 μM (the final concentration, including 1% DMSO) with 5-fold dilutions with the buffer solution. Thus, ten concentrations of each compound were prepared. The initial concentration of PD158780 alone was set at 10 μM (the final concentration, including 1% DMSO) but it was prepared in the same manner as the compound group. Then, 2 μL of each concentration of each compound thus obtained was added to each well of a 384-well plate. Furthermore, 4 μL (20 ng) of an EGFR Kinase Buffer that came with each EGFR Kinase Enzyme System was added to each well, which then was incubated at room temperature for ten minutes. Subsequently, 4 μL of mixed solution of ATP (10 μM) and Poly(Glu, Tyr) (2 μg) substrate was added to each well, which then was incubated at room temperature for one hour. Then, 10 μL of ADP-Glo™ Reagent (ADP-Glo™ Kinase Assay, Promega) was added to each well, which then was reacted at room temperature for 40 minutes. Furthermore, 20 μL of Kinase Detection Reagent (ADP-Glo™ Kinase Assay, Promega) was added to each well, which then was reacted at room temperature for one hour. […] From the data thus obtained, dose-response curves and IC50 were calculated using GraphPad Prism 5 (GraphPad Software, Inc.).

[1] = biological target: T2, EGFR (EGFR Kinase Enzyme System, WT) (Homo sapiens, UniProt P00533); test: EGFR Tyrosine Kinase Inhibiting Activity Measurement 1 (ADP-Glo), WT; format: biochemical; details: for IC50: 1 h incubation with ATP/Poly(Glu, Tyr), >10: <50% enzyme inhibition at 10 μM
T2 construct: purchased Promega V3831
Description: as §1

EGFR (T790M, L858R) = biological target: T3, EGFR (T790M, L858R) (Homo sapiens, UniProt P00533, L858R/T790M); test: EGFR Tyrosine Kinase Inhibiting Activity Measurement 1 (ADP-Glo), DM; format: biochemical; details: 1 h incubation with ATP/Poly(Glu, Tyr); >10: <50% enzyme inhibition at 10 μM
T3 construct: purchased Promega V5324
Description: as §1

EGFR (T790M) = biological target: T4, EGFR (T790M) (Homo sapiens, UniProt P00533, T790M); test: EGFR Tyrosine Kinase Inhibiting Activity Measurement 1 (ADP-Glo), T790M; format: biochemical; details: 1 h incubation with ATP/Poly(Glu, Tyr); >10: <50% enzyme inhibition at 10 μM
T4 construct: purchased Promega V4506
Description: as §1

L858R/T790M-mutated EGFR = biological target: T5, L858R/T790M-mutated EGFR (Homo sapiens, UniProt P00533, L858R/T790M); test: EGFR Tyrosine Kinase Inhibiting Activity Measurement 2, L858R/T790M; format: biochemical
T5 construct: purchased Promega V5324
Description: as §1, with “minutes.” for “minutes. Furthermore, 20 μL of Kinase Detection Reagent (ADP-Glo™ Kinase Assay, Promega) was added to each well, which then was reacted at room temperature for one hour.”

L858R-mutated EGFR = biological target: T6, L858R-mutated EGFR (Homo sapiens, UniProt P00533, L858R); test: EGFR Tyrosine Kinase Inhibiting Activity Measurement 2, L858R; format: biochemical
T6 construct: purchased Promega V5322
Description: as §1, with “minutes.” for “minutes. Furthermore, 20 μL of Kinase Detection Reagent (ADP-Glo™ Kinase Assay, Promega) was added to each well, which then was reacted at room temperature for one hour.”

[2] = test system: H3255 tumor (L858R mutation); test: Biodistribution Experiment (Blocking Experiment), H3255; format: in vivo, mouse; details: AZD9291 (17 μg) administered simultaneously, 180 min after administration; FIG. 4
Description: At 180 minutes after the administration, they were slaughtered and H3255 tumor tissues were removed. The mass and the accumulated radioactivity were measured, and the amount of accumulation (% dose/g) was calculated from the radioactivity per unit weight. […]

[3] = test system: H3255 cells (L858R mutation); test: Cellular Uptake Inhibition Experiment 2 (AZD9291), H3255; format: cell-based, human; details: AZD9291 0, 1, 5 μM pre-incubated 30 min, then 2 h; FIG. 2
Description: (§2) Two types of EGFR mutation-positive human non-small cell lung cancer cells H3255 (L858R mutation) and H1975 (L858R/T790M mutation) were cultured in a DMEM/Ham's F-12 medium (Nacalai Tesque) containing glutamine, antibiotics (penicillin-streptomycin), and 20% fetal bovine serum.
(§3) H3255 and H1975 cells (4×10^5 cells/well) were cultured in a 12-well plate for 24 hours. After the medium was removed, each well was washed with PBS(−) once. […] [^18F]H4 (148 kBq/well) was added to each well, which then was incubated in the 5% CO2 incubator at 37° C. for two hours. Each well was washed with 0.1% Tween 80/1% DMSO/PBS(−) three times, and the cells were dissolved with 0.2 N NaOH. The radioactivity of each solution was measured with the gamma counter and the protein concentration was determined using the BCA Protein Assay Kit (Pierce, Rockford, Ill.) and then the measurement results were analyzed.

[4] = test system: H1975 tumor (L858R/T790M mutation); test: Biodistribution Experiment (Blocking Experiment), H1975; format: in vivo, mouse; details: with or without AZD9291 (17 μg), 180 min after administration; FIG. 4
Description: At 180 minutes after the administration, they were slaughtered and H3255 tumor tissues were removed. The mass and the accumulated radioactivity were measured, and the amount of accumulation (% dose/g) was calculated from the radioactivity per unit weight. This was carried out in the same manner as above except that AZD9291 was not administered.
Furthermore, this experiment was carried out in the same manner as above except that H1975 tumor-bearing mice were used.

[5] = test system: H1975 cells (L858R/T790M mutation); test: Cellular Uptake Inhibition Experiment 2 (AZD9291), H1975; format: cell-based, human; details: regardless of AZD9291 (0, 1, 5 μM), 2 h incubation; FIG. 2
Description: as §2, §3

[6] = test system: H1975 tumor-bearing mouse; test: PET/CT Imaging 2; format: in vivo; details: 180 to 200 min after administration; FIG. 6
Description: PET/CT Imaging 2 was carried out in the same manner as in PET/CT Imaging 1 except that a H1975 tumor-bearing mouse was used and the following imaging conditions were employed.
Animal: Balb/c nu/nu mouse, 9 w, male, 20.9 g
Injection dose: 486 μCi/150 μL
(§4) Image acquisition: 180 to 200 min after administration
(§5) Condition of CT: 60 kV, 320 μA

[7] = test system: H3255 cells (L858R mutation); test: Cellular Uptake Inhibition Experiment 1 (gefitinib), H3255; format: cell-based, human; details: gefitinib 0, 0.5, 1, 2.5 μM, 2 h incubation; FIG. 1
Description: as §2
(§6) The binding specificity of H4 to each mutated EGFR-TK was evaluated by a cellular uptake inhibition experiment using H3255 cells, which are L858R mutant cells, and H1975 cells, which are L858R/T790M mutant cells. H3255 and H1975 cells (4×10^5 cells/well) were cultured in a 12-well plate for 48 hours. After the medium was removed, each well was washed with PBS(−) once. Each fetal bovine serum-free DMEM/Ham's F-12 medium with [^18F]H4 (0.15 MBq/mL) and gefitinib (0, 0.5, 1, and 2.5 μM) added thereto was added to each well, which then was incubated in a CO2 incubator for two hours. Each well was washed with 0.1% Tween 80/1% DMSO/PBS(−) three times, and the cells were dissolved with 0.2 N NaOH. The radioactivity of each solution was measured with the gamma counter, and the protein concentration was determined using a BCA Protein Assay Kit (Pierce, Rockford, Ill.) and then the measurement results were analyzed.

[8] = test system: H3255 tumor-bearing mouse; test: Biodistribution Experiment in tumor-bearing mice; format: in vivo
Description: 1×10^7 cells/mouse of H3255 cells suspended in BD Matrigel™ Basement Membrane Matrix was implanted to the right shoulder of a 5-week-old male BALB/c nu/nu mouse (Shimizu Laboratory Supplies), and thereby a tumor-bearing mouse was prepared. They were used for experiments, with the tumor being 1 cm or smaller in diameter.
[^18F]H4 was dissolved in saline containing 0.1% Tween 80 so as to be 6 μCi/100 μL and 100 μL thereof was administered to each tumor-bearing mouse through a tail vein. The mice were decapitated/slaughtered at predetermined time points (30 minutes, 1 hour, 2 hours, and 3 hours after administration). The blood was collected and tissues were removed and then the mass and the accumulated radioactivity were measured. The amount of accumulation (% dose/g) was calculated from the radioactivity per unit weight and the accumulation in the tissues was evaluated. FIG. 3 is a graph showing an example of variations with time of the accumulation of [^18F]H4 in each organ.

[9] = test system: H3255 tumor-bearing mouse; test: PET/CT Imaging 1; format: in vivo; details: 180 to 200 min after tail vein administration; FIG. 5
Description: [^18F]H4 (9.8 MBq/150 μL) was administered to a H3255 tumor-bearing mouse through a tail vein. He was anesthetized by inhalation of isoflurane (2.0%) from 175 minutes after the administration and then was imaged for 20 minutes from 180 minutes after the administration using a PET/CT device (FX-3300). Thereafter, CT imaging (60 kV, 320 μA) was carried out. The image reconstruction was carried out using 3D-OSEM.
Animal: Balb/c nu/nu mouse, 10 w, male, 22.2 g
Injection dose: 264 μCi/150 μL
as §4, §5

[10] = test system: H1975 cells (L858R/T790M mutation); test: Cellular Uptake Inhibition Experiment 1 (gefitinib), H1975; format: cell-based, human; details: regardless of gefitinib (0, 0.5, 1, 2.5 μM), 2 h incubation; FIG. 1
Description: as §2, §6

[11] = 30 min after tail vein administration, average of 5 mice
[12] = 60 min after tail vein administration, average of 5 mice
[13] = 120 min after tail vein administration, average of 5 mice
[14] = 180 min after tail vein administration, average of 5 mice
[15] = from 30 min to 180 min after administration

T4 sequence (P00533 25-1210 T790M): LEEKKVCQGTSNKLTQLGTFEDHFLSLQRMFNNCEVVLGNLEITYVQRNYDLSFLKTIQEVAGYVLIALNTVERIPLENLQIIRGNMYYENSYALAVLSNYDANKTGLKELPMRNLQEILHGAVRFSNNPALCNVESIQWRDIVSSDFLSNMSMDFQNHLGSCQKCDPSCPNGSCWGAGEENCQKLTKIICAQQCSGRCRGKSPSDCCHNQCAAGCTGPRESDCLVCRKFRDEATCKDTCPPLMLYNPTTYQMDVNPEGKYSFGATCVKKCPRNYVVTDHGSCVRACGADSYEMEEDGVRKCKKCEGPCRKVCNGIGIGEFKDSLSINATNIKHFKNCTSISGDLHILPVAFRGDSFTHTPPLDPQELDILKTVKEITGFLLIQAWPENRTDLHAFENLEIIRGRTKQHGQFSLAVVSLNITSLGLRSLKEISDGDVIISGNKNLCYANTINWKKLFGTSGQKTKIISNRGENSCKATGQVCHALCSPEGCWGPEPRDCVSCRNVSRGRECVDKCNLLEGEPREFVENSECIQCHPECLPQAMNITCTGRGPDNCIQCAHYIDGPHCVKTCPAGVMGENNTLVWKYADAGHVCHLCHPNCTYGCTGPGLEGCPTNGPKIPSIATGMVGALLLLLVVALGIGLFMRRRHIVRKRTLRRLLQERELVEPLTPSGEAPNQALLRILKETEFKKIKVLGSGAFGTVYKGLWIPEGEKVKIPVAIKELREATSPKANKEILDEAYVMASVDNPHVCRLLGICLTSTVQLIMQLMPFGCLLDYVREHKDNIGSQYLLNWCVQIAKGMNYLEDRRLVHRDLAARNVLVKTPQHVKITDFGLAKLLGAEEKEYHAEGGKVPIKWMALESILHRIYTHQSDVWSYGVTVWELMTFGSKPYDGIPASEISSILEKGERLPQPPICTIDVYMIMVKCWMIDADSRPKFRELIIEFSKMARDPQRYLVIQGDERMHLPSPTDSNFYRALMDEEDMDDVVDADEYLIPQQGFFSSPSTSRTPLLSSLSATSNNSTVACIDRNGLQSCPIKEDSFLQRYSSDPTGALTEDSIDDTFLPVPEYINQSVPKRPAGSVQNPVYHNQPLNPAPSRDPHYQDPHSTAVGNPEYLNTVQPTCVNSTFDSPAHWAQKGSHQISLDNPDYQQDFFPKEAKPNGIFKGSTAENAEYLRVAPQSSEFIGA
T3 sequence (P00533 25-1210 T790M/L858R): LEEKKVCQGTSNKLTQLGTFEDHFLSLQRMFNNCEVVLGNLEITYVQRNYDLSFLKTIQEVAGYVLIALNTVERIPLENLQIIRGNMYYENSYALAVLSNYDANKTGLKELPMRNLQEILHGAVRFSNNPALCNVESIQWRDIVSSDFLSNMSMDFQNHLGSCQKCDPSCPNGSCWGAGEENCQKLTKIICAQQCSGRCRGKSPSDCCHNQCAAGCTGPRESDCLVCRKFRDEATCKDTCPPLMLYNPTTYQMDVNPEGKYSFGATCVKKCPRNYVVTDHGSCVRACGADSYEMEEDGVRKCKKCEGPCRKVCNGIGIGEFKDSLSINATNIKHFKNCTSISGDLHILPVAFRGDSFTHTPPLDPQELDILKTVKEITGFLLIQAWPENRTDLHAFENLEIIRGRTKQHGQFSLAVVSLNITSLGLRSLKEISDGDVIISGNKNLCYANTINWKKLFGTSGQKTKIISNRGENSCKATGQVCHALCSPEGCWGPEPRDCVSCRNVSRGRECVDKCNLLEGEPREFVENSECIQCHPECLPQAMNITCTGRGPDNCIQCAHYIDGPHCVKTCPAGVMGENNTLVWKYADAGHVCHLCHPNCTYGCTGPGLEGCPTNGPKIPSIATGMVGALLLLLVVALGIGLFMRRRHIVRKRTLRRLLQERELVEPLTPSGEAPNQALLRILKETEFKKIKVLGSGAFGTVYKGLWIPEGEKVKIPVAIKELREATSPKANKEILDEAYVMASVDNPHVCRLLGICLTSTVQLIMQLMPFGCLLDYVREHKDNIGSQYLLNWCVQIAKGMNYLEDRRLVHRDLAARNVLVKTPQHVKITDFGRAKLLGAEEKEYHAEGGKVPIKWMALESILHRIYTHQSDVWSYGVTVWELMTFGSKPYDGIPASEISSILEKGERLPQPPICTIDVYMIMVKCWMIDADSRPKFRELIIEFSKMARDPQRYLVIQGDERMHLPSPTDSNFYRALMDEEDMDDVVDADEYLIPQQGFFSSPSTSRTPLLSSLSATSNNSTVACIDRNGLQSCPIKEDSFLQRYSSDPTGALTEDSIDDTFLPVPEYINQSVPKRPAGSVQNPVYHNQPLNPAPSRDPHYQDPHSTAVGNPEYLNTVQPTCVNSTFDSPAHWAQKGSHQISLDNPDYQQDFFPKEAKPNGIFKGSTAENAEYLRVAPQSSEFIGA
T2 sequence (P00533 25-1210): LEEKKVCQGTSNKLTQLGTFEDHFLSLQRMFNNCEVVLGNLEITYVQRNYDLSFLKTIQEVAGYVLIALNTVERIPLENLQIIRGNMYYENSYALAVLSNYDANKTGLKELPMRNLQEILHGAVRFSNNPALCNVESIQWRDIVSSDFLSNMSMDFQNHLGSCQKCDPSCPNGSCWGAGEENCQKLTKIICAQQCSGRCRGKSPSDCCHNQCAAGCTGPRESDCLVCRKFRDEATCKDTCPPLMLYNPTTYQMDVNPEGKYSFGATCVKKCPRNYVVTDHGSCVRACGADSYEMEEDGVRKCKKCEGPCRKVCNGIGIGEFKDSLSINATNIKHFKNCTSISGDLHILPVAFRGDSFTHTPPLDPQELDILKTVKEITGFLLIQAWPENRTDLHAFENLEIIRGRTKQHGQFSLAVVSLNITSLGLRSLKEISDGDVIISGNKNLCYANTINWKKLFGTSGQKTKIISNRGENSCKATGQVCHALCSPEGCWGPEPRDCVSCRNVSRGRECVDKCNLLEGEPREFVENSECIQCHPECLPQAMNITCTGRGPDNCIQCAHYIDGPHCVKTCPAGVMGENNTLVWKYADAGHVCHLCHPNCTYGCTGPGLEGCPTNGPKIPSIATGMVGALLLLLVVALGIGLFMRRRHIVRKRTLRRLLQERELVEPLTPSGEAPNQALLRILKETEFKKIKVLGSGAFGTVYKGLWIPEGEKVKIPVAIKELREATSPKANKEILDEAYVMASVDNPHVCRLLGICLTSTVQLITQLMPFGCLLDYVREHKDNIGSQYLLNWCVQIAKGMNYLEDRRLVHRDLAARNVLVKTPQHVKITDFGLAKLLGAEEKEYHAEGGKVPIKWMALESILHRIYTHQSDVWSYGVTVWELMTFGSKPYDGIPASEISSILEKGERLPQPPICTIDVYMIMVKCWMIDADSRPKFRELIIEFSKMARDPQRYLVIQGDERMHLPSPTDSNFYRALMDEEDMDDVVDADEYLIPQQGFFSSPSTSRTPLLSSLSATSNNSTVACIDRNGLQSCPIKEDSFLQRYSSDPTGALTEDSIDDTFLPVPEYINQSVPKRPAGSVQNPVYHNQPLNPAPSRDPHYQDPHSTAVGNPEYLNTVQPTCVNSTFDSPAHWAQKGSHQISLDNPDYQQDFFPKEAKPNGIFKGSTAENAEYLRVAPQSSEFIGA
T1 sequence (P00533 25-1210 L858R): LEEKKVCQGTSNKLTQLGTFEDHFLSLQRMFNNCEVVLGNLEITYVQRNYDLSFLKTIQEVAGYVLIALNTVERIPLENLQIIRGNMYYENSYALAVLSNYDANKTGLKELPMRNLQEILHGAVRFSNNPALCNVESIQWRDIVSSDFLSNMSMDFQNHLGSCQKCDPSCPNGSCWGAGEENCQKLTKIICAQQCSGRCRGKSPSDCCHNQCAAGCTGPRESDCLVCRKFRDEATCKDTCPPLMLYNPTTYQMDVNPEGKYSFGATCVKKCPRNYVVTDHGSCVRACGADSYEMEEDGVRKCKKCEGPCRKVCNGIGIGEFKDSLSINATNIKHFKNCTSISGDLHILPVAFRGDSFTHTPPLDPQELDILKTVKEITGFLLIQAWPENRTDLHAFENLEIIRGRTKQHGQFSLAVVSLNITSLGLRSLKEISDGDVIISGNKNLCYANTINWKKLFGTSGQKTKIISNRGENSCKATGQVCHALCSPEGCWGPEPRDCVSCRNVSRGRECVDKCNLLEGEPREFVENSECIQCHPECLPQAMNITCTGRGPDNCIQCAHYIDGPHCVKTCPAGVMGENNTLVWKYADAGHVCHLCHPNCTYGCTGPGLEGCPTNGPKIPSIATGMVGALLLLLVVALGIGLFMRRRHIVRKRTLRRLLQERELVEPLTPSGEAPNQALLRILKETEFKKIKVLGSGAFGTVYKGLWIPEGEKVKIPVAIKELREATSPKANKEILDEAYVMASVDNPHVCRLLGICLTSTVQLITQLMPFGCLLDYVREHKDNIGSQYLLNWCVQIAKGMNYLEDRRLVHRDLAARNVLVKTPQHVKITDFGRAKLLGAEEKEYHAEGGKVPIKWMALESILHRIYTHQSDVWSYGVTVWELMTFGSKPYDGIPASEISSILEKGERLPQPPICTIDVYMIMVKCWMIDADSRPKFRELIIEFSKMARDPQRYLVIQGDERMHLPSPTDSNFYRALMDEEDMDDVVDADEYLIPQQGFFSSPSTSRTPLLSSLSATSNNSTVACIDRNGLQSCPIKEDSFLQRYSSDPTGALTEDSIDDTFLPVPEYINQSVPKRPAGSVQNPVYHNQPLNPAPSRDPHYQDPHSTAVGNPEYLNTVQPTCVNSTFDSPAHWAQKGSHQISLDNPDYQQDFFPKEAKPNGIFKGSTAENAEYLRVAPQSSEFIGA

FCCOc1cccc(Nc2ncnc3cnc(NCCN4CCOCC4)cc23)c1 [Compound H2, N^4-(3-(2-Fluoroethoxy)phenyl)-N^6-(2-morpholinoethyl)pyrido[3,4-d]pyrimidine-4,6-diamine]
IC50 (EGFR (L858R)): 653 nM
IC50 [1]: 7210 nM
binding affinity to the wild-type EGFR (in words) ([1]; comment on Table 1): low binding affinity
IC50 (EGFR (T790M, L858R)): > 10000 nM
IC50 (EGFR (T790M)): > 10000 nM

O=C(/C=C/CN1CCN(CCF)CC1)Nc1cc2c(Nc3cccc(Br)c3)ncnc2cn1 [Compound H4, (E)-N-(4-((3-Bromophenyl)amino)pyrido[3,4-d]pyrimidin-6-yl)-4-(4-(2-fluoroethyl)piperazin-1-yl)but-2-enamide]
IC50 (EGFR (L858R)): 58 nM
IC50 [1]: 49 nM
IC50 (EGFR (T790M, L858R)): 406 nM
IC50 (L858R/T790M-mutated EGFR; 2 h incubation after ATP and Poly(Glu, Tyr) substrate were added, read-out: EGFR Kinase Inhibition: IC50, L858R/T790M): 326 ± 64 nM
binding affinity to the L858R/T790M-mutated EGFR (in words) (L858R/T790M-mutated EGFR; comment on Table 2): lower than AZD9291 and was higher than Erlotinib
IC50 (L858R-mutated EGFR; 2 h incubation after ATP and Poly(Glu, Tyr) substrate were added, read-out: EGFR Kinase Inhibition: IC50, L858R): 15.6 ± 0.8 nM
binding affinity to the L858R-mutated EGFR (in words) (L858R-mutated EGFR; comment on Table 2): relatively high binding affinity
IC50 (EGFR (T790M)): 409 nM

FCCNc1cc2c(Nc3cccc(Br)c3)ncnc2cn1 [Compound H1, 4-[(3-Bromophenyl)amino]-6-(2-fluoroethylamino)pyrido[3,4-d]pyrimidine]
IC50 (EGFR (L858R)): 15 nM
IC50 [1]: 17 nM
IC50 (EGFR (T790M, L858R)): 4020 nM
IC50 (EGFR (T790M)): 4110 nM

CNc1cc2c(Nc3cccc(Br)c3)ncnc2cn1 [PD158780, reference compound]
IC50 [1]: 6 nM

O=C(/C=C/CN1CCN(CC[18F])CC1)Nc1cc2c(Nc3cccc(Br)c3)ncnc2cn1 [[^18F]H4, (E)-N-(4-((3-Bromophenyl)amino)pyrido[3,4-d]pyrimidin-6-yl)-4-(4-(2-[^18F]fluoroethyl)piperazin-1-yl)but-2-enamide]
reduction in accumulation of [^18F]H4 in the H3255 tumor [2]: 54%
uptake of [^18F]H4 into the H3255 cells [3]: inhibited by AZD9291
change of accumulation of [^18F]H4 in the H1975 tumor [4]: hardly changed
uptake of [^18F]H4 into the H1975 cells [5]: approximately 50 % ID/mg protein
accumulation in PET/CT image, H1975 implant [6]: no specific accumulation
uptake of [^18F]H4 into the H3255 cells [7]: inhibited by gefitinib
Tumor/Blood Ratio [8, 11]: 1.99
Tumor/Muscle Ratio [8, 11]: 3.47
Tumor/Blood Ratio [8, 12]: 3.24
Tumor/Muscle Ratio [8, 12]: 8.89
Tumor/Blood Ratio [8, 13]: 3.28
Tumor/Muscle Ratio [8, 13]: 5.75
Tumor/Blood Ratio [8, 14]: 3.03
Tumor/Muscle Ratio [8, 14]: 9.29
Tumor/Blood Ratio [8, 15]: around 3
Tumor/Muscle Ratio [8, 15]: exceeded 5
metabolism and excretion (transition from the liver to the intestine) ([8]; tumor-bearing mice, 30 to 180 min after administration, FIG. 3): quickly metabolized and excreted
accumulation in PET/CT image, H3255 implant [9]: accumulated specifically in the portion where H3255 was implanted
uptake of [^18F]H4 into the H1975 cells [10]: approximately 50 % ID/mg protein

Fc1ccc(Nc2ncnc3cnc(NCCN4CCOCC4)cc23)cn1 [Compound H3, N^4-(6-Fluoropyridin-3-yl)-N^6-(2-morpholinoethyl)pyrido[3,4-d]pyrimidin-4,6-diamine]
IC50 (EGFR (L858R)): 686 nM
IC50 [1]: 3750 nM
IC50 (EGFR (T790M, L858R)): > 10000 nM
IC50 (EGFR (T790M)): > 10000 nM
